ChEMBL document CHEMBL1126461, “Biologically active heparin-like fragments with a non-glycosaminoglycan structure. Part 3 : o-alkylated-o-sulphated pentasaccharides” (Bioorg Med Chem Lett, 1992)

Target: Coagulation factor X (Homo sapiens) (UniProt P00742)
Test: Compound was evaluated for the inhibition of anti-thrombin III (AT III)-mediated coagulation proteinase factor Xa

Chain of Coagulation factor X (Homo sapiens) (P00742 41-179 limits assumed): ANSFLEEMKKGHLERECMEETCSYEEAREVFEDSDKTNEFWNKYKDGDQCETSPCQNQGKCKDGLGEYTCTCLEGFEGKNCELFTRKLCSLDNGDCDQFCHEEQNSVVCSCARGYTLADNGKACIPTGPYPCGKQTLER
Chain of Coagulation factor X (Homo sapiens) (P00742 235-488 limits assumed): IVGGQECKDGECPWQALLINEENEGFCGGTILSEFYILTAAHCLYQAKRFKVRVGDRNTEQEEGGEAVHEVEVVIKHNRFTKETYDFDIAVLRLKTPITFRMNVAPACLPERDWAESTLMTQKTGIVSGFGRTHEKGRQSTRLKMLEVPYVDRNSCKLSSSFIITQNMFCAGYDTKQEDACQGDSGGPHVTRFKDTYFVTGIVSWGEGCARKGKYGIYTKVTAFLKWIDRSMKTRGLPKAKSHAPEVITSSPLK

SMILES	Activity [U mg-1]
CCCCO[C@@H]1[C@@H](OS(=O)(=O)O)[C@H](O[C@H]2[C@H](OC)[C@@H](OC)[C@H](O[C@H]3[C@H](OS(=O)(=O)O)[C@@H](OS(=O)(=O)O)[C@H](O[C@H]4[C@H](OC)[C@@H](OS(=O)(=O)O)[C@H](O[C@H]5[C@H](OS(=O)(=O)O)[C@@H](OS(=O)(=O)O)[C@@H](OC)O[C@@H]5COS(=O)(=O)O)O[C@H]4C(=O)O)O[C@@H]3COS(=O)(=O)O)O[C@@H]2C(=O)O)O[C@H](COS(=O)(=O)O)[C@H]1OCCCC	1500
CO[C@H]1O[C@H](COS(=O)(=O)O)[C@@H](O[C@@H]2O[C@@H](C(=O)O)[C@@H](O[C@@H]3O[C@H](COS(=O)(=O)O)[C@@H](O[C@@H]4O[C@H](C(=O)O)[C@@H](O[C@@H]5O[C@H](COS(=O)(=O)O)[C@@H](OC)[C@H](OC)[C@H]5OS(=O)(=O)O)[C@H](OC)[C@H]4OC)[C@H](OS(=O)(=O)O)[C@H]3OS(=O)(=O)O)[C@H](OC)[C@H]2OS(=O)(=O)O)[C@H](OS(=O)(=O)O)[C@H]1OS(=O)(=O)O	1320
CCCCCCCCO[C@@H]1[C@@H](OS(=O)(=O)O)[C@H](O[C@H]2[C@H](OS(=O)(=O)O)[C@@H](OS(=O)(=O)O)[C@@H](OC)O[C@@H]2COS(=O)(=O)O)O[C@@H](C(=O)O)[C@H]1O[C@@H]1O[C@H](COS(=O)(=O)O)[C@@H](O[C@@H]2O[C@H](C(=O)O)[C@@H](O[C@@H]3O[C@H](COS(=O)(=O)O)[C@@H](OC)[C@H](OC)[C@H]3OS(=O)(=O)O)[C@H](OCCCC)[C@H]2OCCCC)[C@H](OS(=O)(=O)O)[C@H]1OS(=O)(=O)O	700
CO[C@H]1O[C@H](COS(=O)(=O)O)[C@@H](O[C@@H]2O[C@@H](C(=O)O)[C@@H](O[C@@H]3O[C@H](COS(=O)(=O)O)[C@@H](O[C@@H]4O[C@H](C(=O)O)[C@@H](O[C@@H]5O[C@H](COS(=O)(=O)O)[C@@H](OC)[C@H](OC)[C@H]5OS(=O)(=O)O)[C@H](OC)[C@H]4OC)[C@H](OS(=O)(=O)O)[C@H]3OS(=O)(=O)O)[C@H](OCCCc3ccccc3)[C@H]2OS(=O)(=O)O)[C@H](OS(=O)(=O)O)[C@H]1OS(=O)(=O)O	434
CCCCO[C@@H]1[C@@H](OS(=O)(=O)O)[C@H](O[C@H]2[C@H](OS(=O)(=O)O)[C@@H](OS(=O)(=O)O)[C@@H](OC)O[C@@H]2COS(=O)(=O)O)O[C@@H](C(=O)O)[C@H]1O[C@@H]1O[C@H](COS(=O)(=O)O)[C@@H](O[C@@H]2O[C@H](C(=O)O)[C@@H](O[C@@H]3O[C@H](COS(=O)(=O)O)[C@@H](OC)[C@H](OC)[C@H]3OS(=O)(=O)O)[C@H](OC)[C@H]2OC)[C@H](OS(=O)(=O)O)[C@H]1OS(=O)(=O)O	994
CO[C@H]1O[C@H](COS(=O)(=O)O)[C@@H](O[C@@H]2O[C@@H](C(=O)O)[C@@H](O[C@@H]3O[C@H](COS(=O)(=O)O)[C@@H](O[C@@H]4O[C@H](C(=O)O)[C@@H](O[C@@H]5O[C@H](COS(=O)(=O)O)[C@@H](O)[C@H](O)[C@H]5NS(=O)(=O)O)[C@H](O)[C@H]4O)[C@H](OS(=O)(=O)O)[C@H]3NS(=O)(=O)O)[C@H](O)[C@H]2OS(=O)(=O)O)[C@H](OS(=O)(=O)O)[C@H]1NS(=O)(=O)O	1250
CCCCO[C@@H]1[C@@H](OCCCC)[C@H](O[C@H]2[C@H](OS(=O)(=O)O)[C@@H](OS(=O)(=O)O)[C@H](O[C@H]3[C@H](OC)[C@@H](OS(=O)(=O)O)[C@H](O[C@H]4[C@H](OS(=O)(=O)O)[C@@H](OS(=O)(=O)O)[C@@H](OC)O[C@@H]4COS(=O)(=O)O)O[C@H]3C(=O)O)O[C@@H]2COS(=O)(=O)O)O[C@H](C(=O)O)[C@H]1O[C@@H]1O[C@H](COS(=O)(=O)O)[C@@H](OC)[C@H](OC)[C@H]1OS(=O)(=O)O	1100
